Data published in patent US5912351A, “Anhydrous 1,4-Dihydropyridines and salts thereof” (Recordati, S.A. Chemical and Pharmaceutical Company, priority 1995, dated 1999).

What was measured:
Assay type in all cases: cell-based
[1] = system: mouse monocyte-macrophage cells (ATCC TIB 67 J774A.1); assay: Cell-mediated oxidation of LDL (MDA, thiobarbituric acid assay), J774A.1 cells; conditions: 30 μM, after 10 hours incubation, FIG. 7
Description: The antioxidant capacity of the compounds of the invention, on cell-mediated oxidation, was evaluated by incubating LDL and mouse monocyte-macrophage cells (ATCC TIB 67 J774A.1) with CuSO4 solution in the presence of […], lercanidipine or one of its enantiomers at several concentrations. The inhibition of formation of aldehydic breakdown products, i.e., secondary metabolites of lipid peroxidation, malonic dialdehyde (MDA), was assessed by detection of dialdehyde formation using the thiobarbituric acid assay (A. N. Hanna et al., Biochem. Pharmacol. 45: 753 (1993)).
The antioxidant capacity was evaluated by incubating ethylene-diaminetetraacetic acid free-LDL under sterile conditions with 5 μM Cu++ (100 μg Apo B/ml) in the presence of J774A.1 cells. Oxidation was stopped after 22 hours incubation by addition of butylated hydroxytoluene to the medium (final concentration 40 μM) dissolved in ethanol. […] Malonic dialdehyde equivalents were calculated using 1,1,3,3-tetramethoxypropane as the standard.
In experiments 9A and 9B, the cell-mediated oxidation effects of lercanidipine were investigated after incubation for 22 hours. […] Samples were withdrawn from the incubation medium and the oxidation product, MDA, measured as described above.

enzyme ACAT [2] = target: T1, enzyme ACAT (Mus musculus, UniProt Q61263); assay: Cholesterol esterification induced by AcLDL in mouse peritoneal macrophages; conditions: FIG. 3
T1 construct: Mouse peritoneal macrophages were obtained by peritoneal lavage from mice; endogenous in cells; host or cells: peritoneal macrophages of Balb/c mice, three days after intraperitoneal thioglycolate
T1 sequence (Q61263 1-540): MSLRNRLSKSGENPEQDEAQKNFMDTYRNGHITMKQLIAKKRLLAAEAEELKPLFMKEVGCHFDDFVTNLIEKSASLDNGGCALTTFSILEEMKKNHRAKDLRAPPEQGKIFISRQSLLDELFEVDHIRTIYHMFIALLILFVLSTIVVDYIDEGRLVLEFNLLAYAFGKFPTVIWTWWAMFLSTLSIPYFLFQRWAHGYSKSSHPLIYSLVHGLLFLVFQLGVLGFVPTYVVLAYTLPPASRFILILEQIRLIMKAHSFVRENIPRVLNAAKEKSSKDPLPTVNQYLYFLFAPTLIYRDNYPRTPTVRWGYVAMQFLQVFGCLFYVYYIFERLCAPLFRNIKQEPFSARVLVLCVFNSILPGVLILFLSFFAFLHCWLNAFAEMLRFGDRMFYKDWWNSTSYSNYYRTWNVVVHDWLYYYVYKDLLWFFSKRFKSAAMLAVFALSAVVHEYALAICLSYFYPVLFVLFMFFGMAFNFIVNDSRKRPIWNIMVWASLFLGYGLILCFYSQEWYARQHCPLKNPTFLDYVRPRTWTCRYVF
Description: Cholesterol esterification induced by AcLDL in mouse peritoneal macrophages was investigated as follows. Mouse peritoneal macrophages were obtained by peritoneal lavage from mice (Balb/c Charles River, Calco, Italy) three days after intraperitoneal injection of thioglycolate. Cells (2×3×10^6) were plated in 35 mm wells with Dulbecco's minimum essential medium containing 10% fetal bovine serum. After 3 hours, the dishes were washed to eliminate unattached cells and maintained in Dulbecco's minimum essential medium plus 10% fetal bovine serum for 24 hours before use. After cell plating, experiments were performed at 37° C. in serum free Dulbecco's minimum essential medium containing 0.2% essentially fatty acid-free bovine serum albumin, AcLDL, a specific ACAT inhibitor, S-58035 (See C. A. Ross et al., J. Biol, Chem. 259: 815-819 (1984)), and lercanidipine, or the lercanidipine enantiomers indicated. Human LDL (d=1.019-1.063 g/ml) were isolated from plasma of healthy volunteers by sequential ultracentrifugation (Beckman L5-50, Palo Alto, Calif.). […] Trichloroacetic acid non-precipitable radioactivity was below 2% of total. […] Cholesterol esterification was measured after addition of [1-^14 C] oleic acid (0.68 mCi sample) complexed with bovine serum albumin during the last 1 or 2 hours of incubation by subsequent determination of radioactivity associated with cellular cholesteryl esters.

rat myocytes = assay: Arterial myocyte migration, micro chemotaxis chamber with fibrinogen; conditions: 5 hours, fibrinogen 600 μg/ml, FIG. 2
Description: Migration of rat myocytes was examined using a 48-well micro chemotaxis chamber (Neuro-Probe, USA). Freshly trypsinized myocytes prepared according to the procedure in Example 4A were suspended in a medium supplemented with 5% fetal calf serum (assay medium). The lower wells, containing 27 μl of the assay medium that included fibrinogen (600 μg/ml) as chemotactic agent, were covered with a polyvinylpyrrolidone-free polycarbonate filter ([…]). Fifty μl of the cell suspension (1×10^6 cells/ml) were placed in the upper compartment with the tested compounds. Incubation was carried out for 5 hours at 37° C. in an atmosphere of 95% air and 5% CO2.
After incubation the filter was removed from the chamber and non-migrated cells were scraped from the upper surface, and the filters washed with phosphate buffered saline three times. The filters were stained with Diff-Quik (Merz-Dade AG, Switzerland). The number of myocytes per 100×high power field that had migrated to the lower surface of the filters was determined microscopically. Six high power fields were counted per sample and the results were averaged.

enzyme ACAT [3] = target: T1, enzyme ACAT; assay: Cholesterol esterification in cholesterol ester loaded macrophages; conditions: macrophages preloaded with cholesteryl esters
Description: Cholesterol esterification induced by AcLDL in mouse peritoneal macrophages was investigated as follows. Mouse peritoneal macrophages were obtained by peritoneal lavage from mice (Balb/c Charles River, Calco, Italy) three days after intraperitoneal injection of thioglycolate. Cells (2×3×10^6) were plated in 35 mm wells with Dulbecco's minimum essential medium containing 10% fetal bovine serum. After 3 hours, the dishes were washed to eliminate unattached cells and maintained in Dulbecco's minimum essential medium plus 10% fetal bovine serum for 24 hours before use. After cell plating, experiments were performed at 37° C. in serum free Dulbecco's minimum essential medium containing 0.2% essentially fatty acid-free bovine serum albumin, AcLDL, a specific ACAT inhibitor, S-58035 (See C. A. Ross et al., J. Biol, Chem. 259: 815-819 (1984)), and lercanidipine, or the lercanidipine enantiomers indicated. Human LDL (d=1.019-1.063 g/ml) were isolated from plasma of healthy volunteers by sequential ultracentrifugation (Beckman L5-50, Palo Alto, Calif.). For acetylation, LDL were dialyzed against 0. 15 M NaCl , pH 7.4, diluted with an equal volume of saturated sodium acetate and treated with acetic anhydride. For [^125 1]AcLDL, lipoproteins were labelled with sodium [^125 I]iodide desalted by gel filtration on Sephadex G-25 eluted with phosphate buffered saline. Specific activity was 100-200 cpm/ng of protein. Trichloroacetic acid non-precipitable radioactivity was below 2% of total. All lipoproteins were sterile filtered. The cells were incubated for 24 hours with the tested compounds. […] Cholesterol esterification was measured after addition of [1-^14 C] oleic acid (0.68 mCi sample) complexed with bovine serum albumin during the last 1 or 2 hours of incubation by subsequent determination of radioactivity associated with cellular cholesteryl esters. […]
Cells, prepared according to the procedure in Example 6A, are loaded with cholesteryl esters by exposure for 24 hours to a medium containing 50 μg/ml acetyl LDL. ACAT inhibition was then determined as in Example 6A.

| relative potency, cholesterol esterification (enzyme ACAT [2]) | relative potency, cholesterol esterification (enzyme ACAT [3]) | IC50 (enzyme ACAT [3]; FIG. 4) [µM] | Structure (SMILES) | inhibition of lipid oxidation (MDA) over time [1] | inhibition of myocytes migration (rat myocytes) |
| --- | --- | --- | --- | --- | --- |
| – | – | – | COC(=O)C1=C(C)NC(C)=C(C(=O)OC(C)(C)CN(C)CCC(c2ccccc2)c2ccccc2)C1c1cccc([N+](=O)[O-])c1 (racemic) [LE, methyl 1,1,N-trimethyl-N-(3,3-diphenylpropyl)-2-aminoethyl 1,4-dihydro-2,6-dimethyl-4-(3-nitrophenyl)-pyridine-3,5-dicarboxylate] | very high inhibition of lipid oxidation | – |
| most potent compound | slightly more potent than the racemate | ~7 | COC(=O)C1=C(C)NC(C)=C(C(=O)OC(C)(C)CN(C)CCC(c2ccccc2)c2ccccc2)[C@@H]1c1cccc([N+](=O)[O-])c1 [(R)-LE, (R)-(-)METHYL 1,1-N-TRIMETHYL-N-(3,3-DIPHENYLPROPYL)-2-AMINOETHYL 1,4-DIHYDRO-2,6-DIMETHYL-4-(3-NITROPHENYL)PYRIDINE-3,5-DICARBOXYLATE] | – | most pronounced effect |
| – | least potent | – | COC(=O)C1=C(C)NC(C)=C(C(=O)OC(C)(C)CN(C)CCC(c2ccccc2)c2ccccc2)[C@H]1c1cccc([N+](=O)[O-])c1 [(S)-LE, (S)-(+)-METHYL 1,1-N-TRIMETHYL-N-(3,3-DIPHENYLPROPYL)-2-AMINOETHYL 1,4-DIHYDRO-2,6-DIMETHYL-4-(3-NITROPHENYL)PYRIDINE-3,5-DICARBOXYLATE] | – | – |
